Measured values published in US10525041B2, “Fluoroalkyl-substituted aryltriazole derivatives and uses thereof” (BAYER PHARMA AKTIENGESELLSCHAFT, priority 2016, dated 2020).

How the values were obtained:
human V1a receptor = molecular target: T1, human V1a receptor (Homo sapiens, UniProt P37288); test: Cellular in vitro assay for vasopressin receptor activity, V1a cell line (aequorin luminescence); format: cell-based; details: for IC50: CHO cell line transfected with human V1a receptor, agonist [Arg8]-vasopressin at EC50 concentration, read-out: IC50hV1a; for ratio IC50 hV2/hV1a: ratio of the IC50 on human V2 to the IC50 on human V1a
T1 construct: expressed in transfected cells; host or cells: CHO K1 (ATCC), also stably transfected with a modified aequorin
Experimental: (§1) B-1. Cellular In Vitro Assay for Determining Vasopressin Receptor Activity
(§2) The identification of agonists and antagonists of the V1a and V2 vasopressin receptors from humans, rats and dogs as well as the quantification of the activity of the compounds of the invention is carried out using recombinant cell lines. These cell lines originally derive from a hamster's ovary epithelial cell (Chinese Hamster Ovary, CHO K1, ATCC: American Type Culture Collection, Manassas, Va. 20108, USA). The test cell lines constitutively express the human, rat or dog V1a or V2 receptors. In case of the Gαq-coupled V1a receptors, cells are also stably transfected with a modified form of the calcium-sensitive photoproteins aequorin (human and rat V1a) or obelin (dog V1a), which, after reconstitution with the cofactor coelenterazine, emit light when there are increases in free calcium concentrations [Rizzuto R, Simpson A W, Brini M, Pozzan T, Nature 358, 325-327 (1992); Illarionov B A, Bondar V S, Illarionova V A, Vysotski E S, Gene 153 (2), 273-274 (1995)]. The resulting vasopressin receptor cells react to stimulation of the recombinantly expressed V1a receptors by intracellular release of calcium ions, which can be quantified by the resulting photoprotein luminescence. The Gs-coupled V2 receptors are stably transfected into cell lines expressing the gene for firefly luciferase under control of a CRE-responsible promoter. Activation of V2 receptors induces the activation of the CRE-responsive promoter via cAMP increase, thereby inducing the expression of firefly luciferase. The light emitted by photoproteins of V1a cell lines as well as the light emitted by firefly luciferase of V2 cell lines corresponds to the activation or inhibition of the respective vasopressin receptor. The bioluminescence of the cell lines is detected using a suitable luminometer [Milligan G, Marshall F, Rees S, Trends in Pharmacological Sciences 17, 235-237 (1996)].
Vasopressin V1a Receptor Cell Lines:
On the day before the assay, the cells are plated out in culture medium (DMEM/F12, 2% FCS, 2 mM glutamine, 10 mM HEPES, 5 μg/ml coelenterazine) in 384-well microtiter plates and kept in a cell incubator (96% humidity, 5% v/v CO2, 37° C.). On the day of the assay, test compounds in various concentrations are placed for 10 minutes in the wells of the microtiter plate before the agonist [Arg^8]-vasopressin at EC50 concentration is added. The resulting light signal is measured immediately in a luminometer.
(§3) Table 1A below lists individual IC50 values for the compounds of the invention (including racemic mixtures as well as separated enantiomers) that were obtained from cell lines transfected with the human V1a or V2 receptor: […]

human V2 receptor = molecular target: T2, human V2 receptor (Homo sapiens, UniProt P30518); test: Cellular in vitro assay for vasopressin receptor activity, V2 cell line (CRE-luciferase); format: cell-based; details: CHO cell line transfected with human V2 receptor; agonist [Arg8]-vasopressin at EC50 concentration, 3 hours; read-out: IC50hV2
T2 construct: expressed in transfected cells; host or cells: CHO K1 (ATCC) line expressing firefly luciferase under a CRE-responsive promoter
Experimental: as §1, §2
Vasopressin V2 Receptor Cell Lines:
On the day before the assay, the cells are plated out in culture medium (DMEM/F12, 2% FCS, 2 mM glutamine, 10 mM HEPES) in 384-well microtiter plates and kept in a cell incubator (96% humidity, 5% v/v CO2, 37° C.). On the day of the assay, test compounds in various concentrations and the agonist [Arg^8]-vasopressin at EC50 concentration are added together to the wells, and plates are incubated for 3 hours in a cell incubator. Upon addition of the cell lysis reagent Triton™ and the substrate luciferin, luminescence of firefly luciferase is measured in a luminometer.
as §3

T2 sequence (P30518 whole entry): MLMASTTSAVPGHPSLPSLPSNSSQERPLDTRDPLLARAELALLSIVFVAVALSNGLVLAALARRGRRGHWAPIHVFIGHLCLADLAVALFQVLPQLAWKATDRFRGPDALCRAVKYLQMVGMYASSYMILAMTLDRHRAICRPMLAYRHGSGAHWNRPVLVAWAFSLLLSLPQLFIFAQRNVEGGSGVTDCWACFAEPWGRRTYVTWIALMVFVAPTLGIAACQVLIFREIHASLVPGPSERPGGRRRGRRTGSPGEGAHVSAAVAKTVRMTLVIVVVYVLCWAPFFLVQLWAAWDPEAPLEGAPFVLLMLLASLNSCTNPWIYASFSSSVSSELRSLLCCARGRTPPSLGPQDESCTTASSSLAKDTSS
T1 sequence (P37288 whole entry): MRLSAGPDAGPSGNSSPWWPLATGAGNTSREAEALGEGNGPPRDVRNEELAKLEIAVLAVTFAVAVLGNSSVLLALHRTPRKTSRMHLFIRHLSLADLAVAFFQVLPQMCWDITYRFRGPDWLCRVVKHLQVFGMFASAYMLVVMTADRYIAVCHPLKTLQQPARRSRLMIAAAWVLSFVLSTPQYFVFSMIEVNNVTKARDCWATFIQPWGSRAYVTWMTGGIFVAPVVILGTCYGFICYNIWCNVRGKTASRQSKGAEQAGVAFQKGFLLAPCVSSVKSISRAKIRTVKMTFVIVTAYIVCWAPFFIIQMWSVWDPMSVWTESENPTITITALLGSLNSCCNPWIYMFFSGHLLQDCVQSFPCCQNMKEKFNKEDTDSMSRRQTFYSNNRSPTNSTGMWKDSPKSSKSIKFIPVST

SMILES	IC50 (human V1a receptor) [nM]	ratio IC50 hV2/hV1a (human V1a receptor)	IC50 (human V2 receptor) [nM]
CC(F)c1nc(Cn2nc(-c3ccc(Cl)cc3)n(C[C@H](O)C(F)(F)F)c2=O)nn1-c1cccc(Cl)c1 (mixture of isomers) [Example 16, 5-(4-Chlorophenyl)-2-({1-(3-chlorophenyl)-5-[1-fluoroethyl]-1H-1,2,4-triazol-3-yl}methyl)-4-[(2S)-3,3,3-trifluoro-2-hydroxypropyl]-2,4-dihydro-3H-1,2,4-triazol-3-one]	16	0.0	0.58
CC(F)c1nc(Cn2nc(-c3ccc(Cl)cc3)n(C[C@H](O)C(F)(F)F)c2=O)nn1-c1cnccc1Cl (mixture of isomers) [Example 4, 5-(4-Chlorophenyl)-2-({1-(4-chloropyridin-3-yl)-5-[1-fluoroethyl]-1H-1,2,4-triazol-3-yl}methyl)-4-[(2S)-3,3,3-trifluoro-2-hydroxypropyl]-2,4-dihydro-3H-1,2,4-triazol-3-one]	2.05	9.0	18.5
Cc1cccc(C)c1-n1nc(Cn2nc(-c3ccc(Cl)cc3)n(C[C@H](O)C(F)(F)F)c2=O)nc1C(C)F (mixture of isomers) [Example 46, 5-(4-Chlorophenyl)-2-({1-(2,6-dimethylphenyl)-5-[1-fluoroethyl]-1H-1,2,4-triazol-3-yl}methyl)-4-[(2S)-3,3,3-trifluoro-2-hydroxypropyl]-2,4-dihydro-3H-1,2,4-triazol-3-one]	3.2	0.5	1.74
CC(F)(F)c1nc(Cn2nc(-c3ccc(Cl)cc3)n(C[C@H](O)C(F)(F)F)c2=O)nn1-c1ccccc1[N+](=O)[O-] [Example 65, 5-(4-Chlorophenyl)-2-{[5-(1,1-difluoroethyl)-1-(2-nitrophenyl)-1H-1,2,4-triazol-3-yl]methyl}-4-[(2S)-3,3,3-trifluoro-2-hydroxypropyl]-2,4-dihydro-3H-1,2,4-triazol-3-one]	3.05	3.7	11.4
CC(F)c1nc(Cn2nc(-c3ccc(Cl)cc3)n(C[C@H](O)C(F)(F)F)c2=O)nn1-c1c(F)cccc1F (mixture of isomers) [Example 45, 5-(4-Chlorophenyl)-2-({1-(2,6-difluorophenyl)-5-[1-fluoroethyl]-1H-1,2,4-triazol-3-yl}methyl)-4-[(2S)-3,3,3-trifluoro-2-hydroxypropyl]-2,4-dihydro-3H-1,2,4-triazol-3-one]	2.2	1.3	2.97
CC(F)(F)c1nc(Cn2nc(-c3ccc(Cl)cc3)n(C[C@H](O)C(F)(F)F)c2=O)nn1-c1ccccc1S(N)(=O)=O [Example 66, 2-[3-({3-(4-Chlorophenyl)-5-oxo-4-[(2S)-3,3,3-trifluoro-2-hydroxypropyl]-4,5-dihydro-1H-1,2,4-triazol-1-yl}methyl)-5-(1,1-difluoroethyl)-1H-1,2,4-triazol-1-yl]benzenesulfonamide]	58	5.9	340
CC(F)(F)c1nc(Cn2nc(-c3ccc(Cl)cc3)n(C[C@H](O)C(F)(F)F)c2=O)nn1-c1c(Cl)cccc1Cl [Example 68, 5-(4-Chlorophenyl)-2-{[1-(2,6-dichlorophenyl)-5-(1,1-difluoroethyl)-1H-1,2,4-triazol-3-yl]methyl}-4-[(2S)-3,3,3-trifluoro-2-hydroxypropyl]-2,4-dihydro-3H-1,2,4-triazol-3-one]	3.3	1.3	4.23
CC(F)c1nc(Cn2nc(-c3ccc(Cl)cc3)n(C[C@H](O)C(F)(F)F)c2=O)nn1-c1ncccc1C(F)(F)F (single isomer, unassigned) [Example 11]	13.5	5.5	73.8
O=c1n(Cc2nc(C(F)(F)C3CCOCC3)n(-c3ccccc3Cl)n2)nc(-c2ccc(Cl)cc2)n1C[C@H](O)C(F)(F)F [Example 77, 5-(4-Chlorophenyl)-2-({1-(2-chlorophenyl)-5-[difluoro(tetrahydro-2H-pyran-4-yl)methyl]-1H-1,2,4-triazol-3-yl}methyl)-4-[(2S)-3,3,3-trifluoro-2-hydroxypropyl]-2,4-dihydro-3H-1,2,4-triazol-3-one]	1.4	5.0	7.03
CC(F)c1nc(Cn2nc(-c3ccc(Cl)cc3)n(C[C@H](O)C(F)(F)F)c2=O)nn1-c1ncccc1C(F)(F)F (single isomer, unassigned) [Example 12]	3.8	5.9	22.5
CC(F)c1nc(Cn2nc(-c3ccc(Cl)cc3)n(C[C@H](O)C(F)(F)F)c2=O)nn1-c1c(Cl)cccc1Cl (mixture of isomers) [Example 43, 5-(4-Chlorophenyl)-2-({1-(2,6-dichlorophenyl)-5-[1-fluoroethyl]-1H-1,2,4-triazol-3-yl}methyl)-4-[(2S)-3,3,3-trifluoro-2-hydroxypropyl]-2,4-dihydro-3H-1,2,4-triazol-3-one]	2.05	1.5	3.1
CC(F)(F)c1nc(Cn2nc(-c3ccc(Cl)cc3)n(C[C@H](O)C(F)(F)F)c2=O)nn1-c1ncccc1Cl [Example 58, 5-(4-Chlorophenyl)-2-{[1-(3-chloropyridin-2-yl)-5-(1,1-difluoroethyl)-1H-1,2,4-triazol-3-yl]methyl}-4-[(2S)-3,3,3-trifluoro-2-hydroxypropyl]-2,4-dihydro-3H-1,2,4-triazol-3-one]	1	3.4	3.4

More lines, now with the values ahead:

IC50 (human V1a receptor) [nM]	ratio IC50 hV2/hV1a (human V1a receptor)	IC50 (human V2 receptor) [nM]	SMILES
84.8	3.5	292	CC(F)c1nc(Cn2nc(-c3ccc(Cl)cc3)n(C[C@H](O)C(F)(F)F)c2=O)nn1-c1ccccc1S(N)(=O)=O (mixture of isomers) [Example 41, 2-{3-({3-(4-Chlorophenyl)-5-oxo-4-[(2S)-3,3,3-trifluoro-2-hydroxypropyl]-4,5-dihydro-1H-1,2,4-triazol-1-yl}methyl)-5-[1-fluoroethyl]-1H-1,2,4-triazol-1-yl}benzenesulfonamide]
0.9	1.0	0.93	CC(F)c1nc(Cn2nc(-c3ccc(Cl)cc3)n(C[C@H](O)C(F)(F)F)c2=O)nn1-c1ccccc1Cl (single isomer, unassigned) [Example 3]
0.65	1.5	0.98	Cc1ccccc1-n1nc(Cn2nc(-c3ccc(Cl)cc3)n(C[C@H](O)C(F)(F)F)c2=O)nc1C(C)F (single isomer, unassigned) [Example 36]
0.91	0.4	0.37	CCc1ccccc1-n1nc(Cn2nc(-c3ccc(Cl)cc3)n(C[C@H](O)C(F)(F)F)c2=O)nc1C(C)F (single isomer, unassigned) [Example 29]
1.85	1.0	1.9	CCc1ccccc1-n1nc(Cn2nc(-c3ccc(Cl)cc3)n(C[C@H](O)C(F)(F)F)c2=O)nc1C(C)F (single isomer, unassigned) [Example 30]
22.2	11.7	261	CC(F)c1nc(Cn2nc(-c3ccc(Cl)cc3)n(C[C@H](O)C(F)(F)F)c2=O)nn1-c1ccccc1C#N (single isomer, unassigned) [Example 39]
12.5	0.6	7.85	CC(F)c1nc(Cn2nc(-c3ccc(Cl)cc3)n(C[C@H](O)C(F)(F)F)c2=O)nn1-c1cccc(F)c1 (single isomer, unassigned) [Example 15]
3	5.8	17.5	CC(F)c1nc(Cn2nc(-c3ccc(Cl)cc3)n(C[C@H](O)C(F)(F)F)c2=O)nn1-c1ccccc1OC(F)(F)F (single isomer, unassigned) [Example 26]
